Here are results for six compounds from ChEMBL document CHEMBL5614388, “FLT3-PROTACs for combating AML resistance: Analytical overview on chimeric agents developed, challenges, and future perspectives” (Eur J Med Chem, 2024).

In one assay the test system is MOLM-13. Description: Antiproliferative activity against human MOLM-13 cells assessed as reduction in cell viability incubated for 48 hrs by MTS assay. It counts as functional, cell-based. To be noted: MOLM-13, 48 h. A general note: Tetrazolium dyes change colour on reduction, which living cells bring about.
Assay [1] relates to MV4-11. Description: Antiproliferative activity against human MV4-11 cells assessed as reduction in cell viability incubated for 48 hrs by MTS assay. It counts as functional, cell-based. To be noted: MV4-11, 48 h.
The test system of assay [2] is BaF3. Nature of the assay: Antiproliferative activity against mouse BaF3 cells expressing FLT3-ITD D835Y mutant incubated for 48 hrs by CCK8 assay. The class given is functional, cell-based. As to conditions: BaF3, 48 h.
For assay [3], the system named is BaF3. Description: Antiproliferative activity against mouse BaF3 cells expressing FLT3-ITD F691L mutant incubated for 48 hrs by CCK8 assay. It counts as functional, cell-based. To be noted: BaF3, 48 h.
The test system of assay [4] is BaF3. Nature of the assay: Antiproliferative activity against mouse BaF3 cells expressing FLT3-ITD mutant incubated for 48 hrs by CCK8 assay. The class given is functional, cell-based. As to conditions: BaF3, 48 h.
Assay [5] concerns MV4-11. Nature of the assay: cells. As to conditions: Homo sapiens.
Description: Antiproliferative activity against human MV4-11 cells assessed as reduction in cell viability by WAT-8 reagent based analysis
The subject of assay [6] is MV4-11. Description: Antiproliferative activity against human MV4-11 cells assessed as reduction in cell growth. It counts as functional, cell-based.
Assay [7] deals with MV4-11. Description: Antiproliferative activity against human MV4-11 cells assessed as reduction in cell growth incubated for 48 hrs by CCK-8 assay. It counts as functional, cell-based. As to conditions: MV4-11, 48 h.
The test system of another assay is Kasumi 1. Nature of the assay: cells. To be noted: Homo sapiens, Kasumi 1, 72 h.
Assay [8] has as its system MV4-11. Description: Antiproliferative activity against human MV4-11 cells assessed as reduction in cell viability measured after 48 hrs by CellTiter-Glo assay. It counts as functional, cell-based. As to conditions: MV4-11, 48 h.

SMILES strings stand for the structures. pEC50, pIC50: −log10 of the molar value.

Description for Kasumi 1: Antiproliferative activity against human Kasumi 1 cells assessed as reduction in cell viability incubated for 72 hrs by Cell-titer glo luminescent assay

As for `CCCNc1nc(Nc2ccc(C#N)cc2)ncc1C#CCCCNC(=O)[C@H](C)N(C)C(=O)/C=C/CN(C)C` [FF-10101], the negative-log IC50 (pIC50) (commonly −log10 of the IC50, conventionally taken in molar units) was 9.08 in the assay on MOLM-13; 8.96 with MV4-11 [1]; 7.95 with BaF3 [2]; 7.84 in the assay with BaF3 [3]; 8.74 in the assay on BaF3 [4].

Compound `CCc1nc(C(N)=O)c(Nc2ccc(N3CCC(N4CCN(C)CC4)CC3)c(OC)c2)nc1NC1CCOCC1` [GILTERITINIB] showed a pIC50 in the assay on MV4-11 [5] of 9.05. As to `O=C(CCCCCCC(=O)Nc1cc(-c2ccc3ncn(Cc4c(Cl)cccc4Cl)c3c2)[nH]n1)NO`, in the assay with MV4-11 [6], the negative logarithm of the IC50 (pIC50) is 7.04. Turning to `CCc1nc(C(N)=O)c(Nc2ccc(N3CCN(CN4CCN(c5ccc6c(c5)C(=O)N(C5CCC(=O)NC5=O)C6=O)CC4)CC3)c(OC)c2)nc1NC1CCOCC1` (stereo not given), the negative-log IC50 (pIC50) with MV4-11 [7] was 8.78. For `Cc1[nH]c(/C=C2\C(=O)Nc3ccc(F)cc32)c(C)c1C(=O)NCCCCCCNc1cccc2c1C(=O)N(C1CCC(=O)NC1=O)C2=O` (stereo not given), the pEC50 – broadly, the negative decadic logarithm of the EC50, by convention in mol/L – in the assay with Kasumi 1 was 7.67. In the case of `CC(C)(C)c1cc(NC(=O)Nc2ccc(-c3cn(CCCCc4cn(CCCCC(=O)Nc5cccc6c5CN(C5CCC(=O)NC5=O)C6=O)nn4)c4ncnc(N)c34)cc2)no1` (stereo not given), the pIC50 with MV4-11 [8] was 8.32.
